What was measured:
plants comprising EE-GH7 = experiment: Field tolerance of plants comprising EE-GH7 to IFT, glyphosate and combinations; assay type: in vivo, cotton (Gossypium hirsutum)
Method: Tolerance of plants comprising EE-GH7 to IFT, to glyphosate and to combinations thereof, was tested at different locations in the field. […] Currently available data appear to indicate a performance which is at least equal to, or better than the performance of plants comprising EE-GH7 over plants comprising the hppd and epsps chimeric genes as described in WO2013/026740.

[1] = test system: commercial cotton cultivars comprising EE-GH7; experiment: Herbicide tolerance after introgression of EE-GH7 into commercial cotton cultivars; assay type: in vivo, cotton (Gossypium hirsutum); conditions: EE-GH7 introgressed by repeated back-crossing into commercial cultivars
Excerpt: This confirms the status of event EE-GH7 as an elite event.

## CS(=O)(=O)c1cc(C(F)(F)F)ccc1C(=O)c1cnoc1C1CC1 [IFT, (5-cyclopropyl-4-isoxazolyl)[2-(methylsulfonyl)-4-(trifluoromethyl)phenyl]methanone]
Plants comprising EE-GH7; different locations, IFT alone, in particular applied before emergence
  Tolerance of plants comprising EE-GH7 to the herbicide: good tolerance
[1]
  Expression of the transgene as determined by herbicide tolerance: meets commercially acceptable levels

## O=C(O)CNCP(=O)(O)O [glyphosate]
Plants comprising EE-GH7; applied post emergence
  Tolerance of plants comprising EE-GH7 to the herbicide: good tolerance
Plants comprising EE-GH7; versus EE-GH3 of WO2007/017186
  Glyphosate tolerance of plants comprising EE-GH7 compared with elite glyphosate tolerant event EE-GH3: equal to or better than
[1]
  Expression of the transgene as determined by herbicide tolerance: meets commercially acceptable levels

— patent publication US11085050B2, “Elite event EE-GH7 and methods and kits for identifying such event in biological samples” (BASF AGRICULTURAL SOLUTIONS SEED, US LLC, priority 2016, dated 2021)
